Laboratory results reported in the supplement of paper PMC13380429.

Assays:
Conditions in all cases: 72 h
[1] = test system: Vero E6; test: cell viability relative to DMSO; higher = less toxic
[2] = test system: HepG2; test: as above
[3] = test system: Caco-2; test: as above
[4] = test system: Calu-3; test: as above
[5] = test system: U2OS; test: as above
[6] = test system: Vero E6; test: drug sensitivity score (DSS) for viability; higher = more toxic; extreme values may be limits of the assay
[7] = test system: HepG2; test: as above
[8] = test system: Caco-2; test: as above
[9] = test system: Calu-3; test: as above
[10] = test system: U2OS; test: as above
[11] = test system: Vero E6; test: relative viability EC50 (midpoint between 100% and the lowest measured viability); higher = less toxic
[12] = test system: HepG2; test: as above
[13] = test system: Calu-3; test: as above
[14] = test system: U2OS; test: as above
[15] = test system: Caco-2; test: as above

CC(=O)Oc1c(C)cc(OCC(O)CNC(C)C)c(C)c1C (centres undefined) [metipranolol]
cell viability ([1]; 1 nM): 103% | cell viability ([1]; 10 nM): 107% | cell viability ([1]; 100 nM): 94.6% | cell viability ([1]; 1000 nM): 85.8% | cell viability ([1]; 10000 nM): 97.5% | cell viability ([2]; 1 nM): 101% | cell viability ([2]; 10 nM): 102% | cell viability ([2]; 100 nM): 105% | cell viability ([2]; 1000 nM): 84% | cell viability ([2]; 10000 nM): 93.3% | cell viability ([3]; 1 nM): 73.8% | cell viability ([3]; 10 nM): 84.6% | cell viability ([3]; 100 nM): 102% | cell viability ([3]; 1000 nM): 98.7% | cell viability ([3]; 10000 nM): 70.3% | cell viability ([4]; 1 nM): 94.6% | cell viability ([4]; 10 nM): 89.8% | cell viability ([4]; 100 nM): 97.7% | cell viability ([4]; 1000 nM): 96.1% | cell viability ([4]; 10000 nM): 92.9% | cell viability ([5]; 1 nM): 99.1% | cell viability ([5]; 10 nM): 97.3% | cell viability ([5]; 100 nM): 96.2% | cell viability ([5]; 1000 nM): 93.9% | cell viability ([5]; 10000 nM): 93.8% | drug sensitivity score [6]: 1.6 | drug sensitivity score [7]: 1.5 | drug sensitivity score [8]: 1.3 | drug sensitivity score [9]: 0 | drug sensitivity score [10]: 0 | relative viability EC50 [11]: > 10 µM | relative viability EC50 [12]: > 10 µM | relative viability EC50 [13]: > 10 µM | relative viability EC50 [14]: > 10 µM

NCc1c[nH]c(=S)n1[C@H]1CCc2c(F)cc(F)cc2C1 [nepicastat]
cell viability ([1]; 1 nM): 105% | cell viability ([1]; 10 nM): 104% | cell viability ([1]; 100 nM): 106% | cell viability ([1]; 1000 nM): 96.7% | cell viability ([1]; 10000 nM): 108% | cell viability ([2]; 1 nM): 100% | cell viability ([2]; 10 nM): 95.2% | cell viability ([2]; 100 nM): 93.8% | cell viability ([2]; 1000 nM): 102% | cell viability ([2]; 10000 nM): 96.2% | cell viability ([4]; 1 nM): 87.7% | cell viability ([4]; 10 nM): 95.3% | cell viability ([4]; 100 nM): 98.6% | cell viability ([4]; 1000 nM): 103% | cell viability ([4]; 10000 nM): 97.6% | cell viability ([5]; 1 nM): 101% | cell viability ([5]; 10 nM): 105% | cell viability ([5]; 100 nM): 99% | cell viability ([5]; 1000 nM): 106% | cell viability ([5]; 10000 nM): 97.2% | drug sensitivity score [6]: 0 | drug sensitivity score [7]: 0 | drug sensitivity score [9]: 0 | drug sensitivity score [10]: 0 | relative viability EC50 [11]: > 10 µM | relative viability EC50 [12]: > 10 µM | relative viability EC50 [13]: > 10 µM | relative viability EC50 [14]: > 10 µM

C[C@@]12C[C@@]3(O)O[C@@H](O1)[C@]1(COC(=O)c4ccccc4)[C@H]3C[C@@]12O[C@@H]1O[C@H](CO)[C@@H](O)[C@H](O)[C@H]1O [paeoniflorin]
cell viability ([2]; 1 nM): 100% | cell viability ([2]; 10 nM): 100% | cell viability ([2]; 100 nM): 102% | cell viability ([2]; 1000 nM): 107% | cell viability ([2]; 10000 nM): 95.9% | cell viability ([3]; 1 nM): 103% | cell viability ([3]; 10 nM): 101% | cell viability ([3]; 100 nM): 96% | cell viability ([3]; 1000 nM): 93.5% | cell viability ([3]; 10000 nM): 96% | cell viability ([4]; 1 nM): 91% | cell viability ([4]; 10 nM): 98.6% | cell viability ([4]; 100 nM): 107% | cell viability ([4]; 1000 nM): 87% | cell viability ([4]; 10000 nM): 98.7% | cell viability ([5]; 1 nM): 101% | cell viability ([5]; 10 nM): 99.8% | cell viability ([5]; 100 nM): 104% | cell viability ([5]; 1000 nM): 102% | cell viability ([5]; 10000 nM): 101% | drug sensitivity score [7]: 0 | drug sensitivity score [8]: 0 | drug sensitivity score [9]: 0 | drug sensitivity score [10]: 0 | relative viability EC50 [12]: > 10 µM | relative viability EC50 [15]: > 10 µM | relative viability EC50 [13]: > 10 µM | relative viability EC50 [14]: > 10 µM

CCCCCCCCCCCCCCCC(=O)OC(CC(=O)[O-])C[N+](C)(C)C (centres undefined) [palmitoylcarnitine]
cell viability ([1]; 1 nM): 96.2% | cell viability ([1]; 10 nM): 104% | cell viability ([1]; 100 nM): 104% | cell viability ([1]; 1000 nM): 99.6% | cell viability ([1]; 10000 nM): 73% | cell viability ([2]; 1 nM): 99.3% | cell viability ([2]; 10 nM): 96.8% | cell viability ([2]; 100 nM): 107% | cell viability ([2]; 1000 nM): 95.8% | cell viability ([2]; 10000 nM): 94.9% | cell viability ([3]; 1 nM): 110% | cell viability ([3]; 10 nM): 102% | cell viability ([3]; 100 nM): 102% | cell viability ([3]; 1000 nM): 92.5% | cell viability ([3]; 10000 nM): 93% | cell viability ([4]; 1 nM): 98.3% | cell viability ([4]; 10 nM): 94.3% | cell viability ([4]; 100 nM): 100% | cell viability ([4]; 1000 nM): 97% | cell viability ([4]; 10000 nM): 84.2% | cell viability ([5]; 1 nM): 103% | cell viability ([5]; 10 nM): 104% | cell viability ([5]; 100 nM): 99.9% | cell viability ([5]; 1000 nM): 100% | cell viability ([5]; 10000 nM): 102% | drug sensitivity score [6]: 1.1 | drug sensitivity score [7]: 0 | drug sensitivity score [8]: 0 | drug sensitivity score [9]: 0.6 | drug sensitivity score [10]: 0 | relative viability EC50 [12]: > 10 µM | relative viability EC50 [15]: > 10 µM | relative viability EC50 [13]: > 10 µM | relative viability EC50 [14]: > 10 µM

CCCOC(=O)c1ccccc1 [propyl-benzoate]
cell viability ([1]; 1 nM): 94.3% | cell viability ([1]; 10 nM): 94.6% | cell viability ([1]; 100 nM): 91.8% | cell viability ([1]; 1000 nM): 90.3% | cell viability ([1]; 10000 nM): 101% | cell viability ([2]; 1 nM): 98.7% | cell viability ([2]; 10 nM): 98.2% | cell viability ([2]; 100 nM): 94.7% | cell viability ([2]; 1000 nM): 93% | cell viability ([2]; 10000 nM): 94.4% | cell viability ([4]; 1 nM): 98.5% | cell viability ([4]; 10 nM): 90.6% | cell viability ([4]; 100 nM): 98.2% | cell viability ([4]; 1000 nM): 99.1% | cell viability ([4]; 10000 nM): 102% | drug sensitivity score [6]: 0 | drug sensitivity score [7]: 0 | drug sensitivity score [9]: 0 | relative viability EC50 [11]: > 10 µM | relative viability EC50 [12]: > 10 µM | relative viability EC50 [13]: > 10 µM

Cc1cc(/C=C/C#N)cc(C)c1Nc1ccnc(Nc2ccc(C#N)cc2)n1 [rilpivirine]
cell viability ([1]; 1 nM): 100% | cell viability ([1]; 10 nM): 100% | cell viability ([1]; 100 nM): 96.8% | cell viability ([1]; 1000 nM): 98.5% | cell viability ([1]; 10000 nM): 70.5% | cell viability ([2]; 1 nM): 98.9% | cell viability ([2]; 10 nM): 99.8% | cell viability ([2]; 100 nM): 99.5% | cell viability ([2]; 1000 nM): 96.9% | cell viability ([2]; 10000 nM): 47.7% | cell viability ([3]; 1 nM): 97.8% | cell viability ([3]; 10 nM): 98% | cell viability ([3]; 100 nM): 93.3% | cell viability ([3]; 1000 nM): 87.3% | cell viability ([3]; 10000 nM): 61.4% | cell viability ([4]; 1 nM): 97% | cell viability ([4]; 10 nM): 93.7% | cell viability ([4]; 100 nM): 99.8% | cell viability ([4]; 1000 nM): 95.6% | cell viability ([4]; 10000 nM): 92.7% | cell viability ([5]; 1 nM): 94.8% | cell viability ([5]; 10 nM): 99.1% | cell viability ([5]; 100 nM): 99.6% | cell viability ([5]; 1000 nM): 95.4% | cell viability ([5]; 10000 nM): 80.5% | drug sensitivity score [6]: 1.5 | drug sensitivity score [7]: 3.2 | drug sensitivity score [8]: 3.1 | drug sensitivity score [9]: 0 | drug sensitivity score [10]: 1.1 | relative viability EC50 [12]: 2.69 µM | relative viability EC50 [13]: > 10 µM | relative viability EC50 [14]: > 10 µM

COc1cc2c(N3CCN(C(=O)Nc4ccc(OC(C)C)cc4)CC3)ncnc2cc1OCCCN1CCCCC1 [tandutinib]
cell viability ([2]; 1 nM): 110% | cell viability ([2]; 10 nM): 112% | cell viability ([2]; 100 nM): 112% | cell viability ([2]; 1000 nM): 109% | cell viability ([2]; 10000 nM): 84.1% | cell viability ([3]; 1 nM): 113% | cell viability ([3]; 10 nM): 102% | cell viability ([3]; 100 nM): 112% | cell viability ([3]; 1000 nM): 105% | cell viability ([3]; 10000 nM): 98.2% | cell viability ([4]; 1 nM): 109% | cell viability ([4]; 10 nM): 97% | cell viability ([4]; 100 nM): 94.7% | cell viability ([4]; 1000 nM): 108% | cell viability ([4]; 10000 nM): 111% | drug sensitivity score [7]: 0.1 | drug sensitivity score [8]: 0 | drug sensitivity score [9]: 0 | relative viability EC50 [12]: > 10 µM | relative viability EC50 [15]: > 10 µM | relative viability EC50 [13]: > 10 µM
